“Also recorded” adds a separate entry of the source. Where two headings read alike, the source gives them in different places. Where no end group is shown, it is not given here.
Key:
[1] = test system: T cells; details: cited from earlier work; for immunogenicity / T-cell responses / patients recognizing the peptide: Saeterdal et al., PNAS 2001; for immunogenicity / T-cell responses: tumour infiltrating Th cells, MSI+ tumours
[2] = test system: T cells (PBMC) from healthy donors; assay: T-cell proliferation (3H-thymidine, SI) after in vitro stimulation of PBMC with cocktail fsp2+fsp4 (Example 4); format: cell-based, human; set-up: T cell proliferation (stimulation index, SI): immunogenicity: dose or concentration left out as unconfirmed; details: for T cell proliferation (stimulation index, SI): immunogenicity: first and second round of in vitro stimulation with cocktail of fsp2 and fsp4, four healthy donors, FIGS. 10-12
Description: Fresh buffy coats from four healthy donors were obtained from a blood bank.
Peripheral blood mononuclear cells (PBMC) isolated from fresh buffy coats from four healthy donors were counted and suspended in DC medium to 15*10^6 cells/ml, and subsequently diluted with DC-medium to 4*10^6 cells/ml (Table 6).
Four 24-well plates were used for each donor, with 4*10^6 cells per well (each well has a volume of 1 ml).
Peptide cocktail: Solution of peptides fsp2+fsp4, containing […] of each peptide. 40 μl peptide solution was added to each well.
The plates were incubated in a cell incubator for 14 days (37° C., 5% CO2). IL-2 and IL-7 were added on day 3. The cells were inspected daily.
Test peptides: fsp2+fsp4 (SEQ ID NOs: 21 and 23), fsp1 (SEQ ID NO: 20), fsp2 (SEQ ID NO: 21), fsp3 (SEQ ID NO: 22), fsp4 (SEQ ID NO: 23), fsp5 (SEQ ID NO: 19).
Negative controls: T cells, T cells+APC (without addition of test peptides)
Cells and reagents were added to plate wells (in triplicate) as described in Tables 8 and 9 below. The total volume added to each well was 0.20 ml. • T cells (PBMC): 50 000 cells/well (0.25*10^6 cells/ml) • APC: Irradiated (30 Gy, 8 minutes) autologous feeder cells: 50 000 cells/well • (fspx): 0.2 nmol peptide/well (each peptide), concentration: […] peptide. (fsp was dissolved in DMSO before dilution to correct concentration)
The plates were incubated in a cell incubator for 48 hours (37° C., 5% CO2).
After incubation for 48 hours, 20 μl 3H-tThymidine solution (5 Ci/ml) was added to each well and the plates were incubated for approximately 17 hours (37° C., 5% CO2).
After 17 hours the cells were harvested (Unifilters) and dried on the filters at 45° C. until completely dry. After covering the bottom of the Unifilters with adhesive covers (delivered with the Unifilters) 25 μl micro scintillation liquid was added to each well, the plate was covered with TopSeal and 3H-Thymidine uptake was measured as counts per minute (CPM) using a microplate scintillation counter.
The T cell proliferation results after the first round of in vitro stimulation with the cocktail of fsp2 and fsp4 peptides are presented as stimulation index (SI) in FIG. 10. SI=mean CPM (triplicates) of (T cells+APC+test peptide(s)) divided by mean CPM (triplicates) of (T cells+APC). SI>1 indicates an increase in T-cell proliferation and SI 2 is a clear sign of immunogenicity.
PBMCs harvested after the first in vitro stimulation were re-stimulated in vitro according to the protocol set out above, with 2×10^6 cells per well. T-cell proliferation was tested according to the protocol set out above.

In the case of “AMTTSSSQKNITPAILTCC (listed as Homo sapiens) [p537, prior art peptide of mutTGFβR2]”, the “immunogenicity / T-cell responses” value [1] is listed as “not immunogenic”.

In the case of “KCIMKEKKSLVRLSSCVPVALMSA (listed as Homo sapiens) [fsp1, peptide of −1a frameshifted TGFβR2]”, the relative immunogenicity ([2]; FIGS. 10 and 11, compared with fsp3 and fsp4) is reported as “more immunogenic than peptides which do not comprise amino acids from the wild-type sequence of TGFβR2” and the “T cell proliferation (stimulation index, SI): immunogenicity” value [2] is reported as “stimulated T-cells induced from PMBCs”.

In the case of “PKCIMKEKKKSLVRLSSCV (listed as Homo sapiens) [p541, prior art peptide of mutTGFβR2]”, the “immunogenicity / T-cell responses” value [1] is given as “able to induce T-cell responses in some patients” and the “immunogenicity / T-cell responses” value ([1]; listed as p4541) is given as “immunogenic”.

For “SLVRLSSCV (listed as Homo sapiens) [p523, prior art peptide of mutTGFβR2]”, the immunogenicity ([1]; EP1078000 FIG. 14, four rounds of stimulation of the T-cells) is given as “immunogenic” and the immunogenicity ([1]; Linnebacher et al., FIG. 1) is given as “not immunogenic”.

In the case of “SLVRLSSCVPVALMSAMTTSSSQ (listed as Homo sapiens) [p538, prior art peptide of mutTGFβR2]”, the “patients recognizing the peptide” value ([1]; patients having spontaneous MSI+ colon cancer) is listed as “two of three”, the “patients recognizing the peptide” value ([1]; patients with HNPCC) is listed as “all three” and the “immunogenicity / T-cell responses” value [1] is listed as “highly immunogenic”.

In the case of “SPKCIMKEKKSLVRLSSCVPVA (listed as Homo sapiens) [P540, prior art peptide of mutTGFβR2]”, the “immunogenicity / T-cell responses” value [1] is listed as “able to induce T-cell responses in some patients; also recorded: immunogenic”.

In the case of “SSGVPVALMSAMTTSSSQKN (not fully specified) [fsp4, modified peptide of −1a frameshifted TGFβR2]”, the “T cell proliferation (stimulation index, SI): immunogenicity” value [2] is reported as “immunogenic and can activate T-cells”.

Source: patent US20230203130A1, “A PEPTIDE COCKTAIL” (Hubro Therapeutics AS, priority 2020, published 2023)
